The results in this text go back to patent publication US6566547B1, “Fungicides” (Zeneca Limited, priority 1984, dated 2003).

Each structure is given as a SMILES string. Structures can show the parent of a compound that is named as a salt.

A word on the melting point: it is the temperature of the solid-liquid transition. The compound `CO/C=C(/C(=O)OC)c1ccccc1` (as salt: sulphate) came in with a melting point of 37 to 38 °C.
